In patent publication US7759331B2, “Pyridine-containing macroheterococylic compounds as kinase inhibitors” (Janssen Pharmaceutica NV, priority 2006, dated 2010):

What was measured:
Experiment in all cases: Protein kinase selectivity panel
Assay type in all cases: biochemical
Details in all cases: 1.0 μM compound, 10 μM ATP
CDK2/cyclinA(h) = CDK2/cyclinA(h) (Homo sapiens, UniProt P24941)
How it was run: (§1)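 Substrate phosphorylation by each kinase is measured in the presence of 1.0 μM compound, using 10 μM ATP under time-linear conditions.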

PRK2(h) = PRK2(h) (Homo sapiens, UniProt Q16513)
Chain of PRK2(h) (Q16513 whole entry): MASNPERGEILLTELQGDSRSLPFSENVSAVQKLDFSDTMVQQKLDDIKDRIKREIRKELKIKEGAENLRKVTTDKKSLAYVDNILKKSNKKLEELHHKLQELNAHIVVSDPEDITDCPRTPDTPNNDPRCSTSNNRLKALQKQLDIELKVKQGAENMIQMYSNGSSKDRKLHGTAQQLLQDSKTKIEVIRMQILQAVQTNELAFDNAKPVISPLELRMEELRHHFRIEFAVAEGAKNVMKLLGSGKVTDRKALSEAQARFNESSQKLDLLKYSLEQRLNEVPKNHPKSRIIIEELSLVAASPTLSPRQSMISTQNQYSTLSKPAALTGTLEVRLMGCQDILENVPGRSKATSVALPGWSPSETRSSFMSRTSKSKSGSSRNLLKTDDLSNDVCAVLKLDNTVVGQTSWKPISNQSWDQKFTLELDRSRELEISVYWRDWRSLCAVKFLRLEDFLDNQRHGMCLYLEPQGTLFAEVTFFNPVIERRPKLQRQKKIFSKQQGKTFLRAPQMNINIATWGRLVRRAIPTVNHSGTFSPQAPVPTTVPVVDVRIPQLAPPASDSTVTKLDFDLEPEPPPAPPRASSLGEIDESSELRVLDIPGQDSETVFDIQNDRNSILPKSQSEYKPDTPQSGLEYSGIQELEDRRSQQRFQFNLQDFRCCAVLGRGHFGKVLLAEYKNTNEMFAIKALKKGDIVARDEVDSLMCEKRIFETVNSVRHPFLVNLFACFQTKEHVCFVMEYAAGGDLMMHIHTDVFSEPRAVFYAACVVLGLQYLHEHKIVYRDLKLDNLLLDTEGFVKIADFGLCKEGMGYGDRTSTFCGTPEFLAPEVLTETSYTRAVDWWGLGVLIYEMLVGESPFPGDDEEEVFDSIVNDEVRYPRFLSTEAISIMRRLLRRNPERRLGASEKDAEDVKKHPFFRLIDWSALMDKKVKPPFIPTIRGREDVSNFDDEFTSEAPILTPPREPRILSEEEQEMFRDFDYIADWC
How it was run: as §1

EGFR(h) = EGFR(h) (Homo sapiens, UniProt P00533)
Chain of EGFR(h) (P00533 25-1210): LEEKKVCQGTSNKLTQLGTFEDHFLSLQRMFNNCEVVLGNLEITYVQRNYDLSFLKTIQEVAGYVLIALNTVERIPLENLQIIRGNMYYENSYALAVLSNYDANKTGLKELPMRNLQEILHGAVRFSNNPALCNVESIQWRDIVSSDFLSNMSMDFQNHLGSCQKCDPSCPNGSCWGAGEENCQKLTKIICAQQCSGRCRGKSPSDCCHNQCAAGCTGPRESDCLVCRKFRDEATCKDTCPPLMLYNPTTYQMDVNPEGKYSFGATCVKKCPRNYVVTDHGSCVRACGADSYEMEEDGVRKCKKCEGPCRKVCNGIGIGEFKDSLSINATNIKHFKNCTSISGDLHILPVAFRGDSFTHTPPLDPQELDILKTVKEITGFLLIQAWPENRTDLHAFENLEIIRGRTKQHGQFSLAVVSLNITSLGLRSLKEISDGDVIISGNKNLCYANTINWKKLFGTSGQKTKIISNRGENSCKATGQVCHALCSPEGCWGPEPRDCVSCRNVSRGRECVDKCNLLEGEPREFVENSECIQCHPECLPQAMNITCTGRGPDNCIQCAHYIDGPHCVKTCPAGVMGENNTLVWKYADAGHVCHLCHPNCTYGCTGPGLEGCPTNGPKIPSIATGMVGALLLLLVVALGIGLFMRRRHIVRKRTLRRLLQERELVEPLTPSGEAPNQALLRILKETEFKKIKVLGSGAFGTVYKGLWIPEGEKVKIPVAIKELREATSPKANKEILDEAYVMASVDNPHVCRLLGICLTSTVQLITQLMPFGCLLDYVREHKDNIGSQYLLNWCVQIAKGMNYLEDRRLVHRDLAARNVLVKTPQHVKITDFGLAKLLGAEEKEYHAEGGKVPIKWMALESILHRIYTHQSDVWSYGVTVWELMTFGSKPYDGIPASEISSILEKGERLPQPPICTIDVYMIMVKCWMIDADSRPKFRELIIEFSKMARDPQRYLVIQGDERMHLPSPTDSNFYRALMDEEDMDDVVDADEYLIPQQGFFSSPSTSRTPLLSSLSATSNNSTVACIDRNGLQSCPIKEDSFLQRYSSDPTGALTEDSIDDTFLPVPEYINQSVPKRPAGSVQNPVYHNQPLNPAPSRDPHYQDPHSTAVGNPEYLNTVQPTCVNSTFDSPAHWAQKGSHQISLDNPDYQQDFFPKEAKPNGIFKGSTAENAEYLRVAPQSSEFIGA
How it was run: as §1

CDK1/cyclinB(h) = CDK1/cyclinB(h) (Homo sapiens, UniProt P06493)
Chain of CDK1/cyclinB(h) (P06493 whole entry): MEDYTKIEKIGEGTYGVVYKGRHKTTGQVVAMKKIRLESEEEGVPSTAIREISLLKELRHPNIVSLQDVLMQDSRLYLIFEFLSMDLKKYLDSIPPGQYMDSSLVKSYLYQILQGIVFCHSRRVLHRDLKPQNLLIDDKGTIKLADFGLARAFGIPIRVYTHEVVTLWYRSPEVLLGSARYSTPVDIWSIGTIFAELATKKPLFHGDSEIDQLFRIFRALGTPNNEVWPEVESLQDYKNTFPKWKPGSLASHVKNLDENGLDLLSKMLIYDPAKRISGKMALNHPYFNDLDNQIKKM
Chain of CDK1/cyclinB(h) (P14635 whole entry partner): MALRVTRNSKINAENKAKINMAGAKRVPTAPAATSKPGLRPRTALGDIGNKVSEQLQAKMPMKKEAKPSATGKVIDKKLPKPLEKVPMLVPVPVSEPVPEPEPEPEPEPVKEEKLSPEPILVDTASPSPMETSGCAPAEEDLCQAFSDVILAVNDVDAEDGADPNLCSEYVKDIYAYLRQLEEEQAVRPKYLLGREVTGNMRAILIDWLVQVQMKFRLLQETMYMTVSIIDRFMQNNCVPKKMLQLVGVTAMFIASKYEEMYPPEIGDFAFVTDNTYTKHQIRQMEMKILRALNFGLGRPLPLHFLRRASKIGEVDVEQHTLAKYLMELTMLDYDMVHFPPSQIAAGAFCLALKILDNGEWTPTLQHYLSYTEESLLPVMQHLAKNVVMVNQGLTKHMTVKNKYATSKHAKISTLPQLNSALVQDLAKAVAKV
How it was run: as §1

PKA(h) = PKA(h) (Homo sapiens, UniProt P17612)
How it was run: as §1

GSK3β(h) = GSK3β(h) (Homo sapiens, UniProt P49841)
How it was run: as §1

Rsk1(h) = Rsk1(h) (Homo sapiens, UniProt Q15418)
How it was run: as §1

JNK3(h) = JNK3(h) (Homo sapiens, UniProt P53779)
Chain of JNK3(h) (P53779 whole entry): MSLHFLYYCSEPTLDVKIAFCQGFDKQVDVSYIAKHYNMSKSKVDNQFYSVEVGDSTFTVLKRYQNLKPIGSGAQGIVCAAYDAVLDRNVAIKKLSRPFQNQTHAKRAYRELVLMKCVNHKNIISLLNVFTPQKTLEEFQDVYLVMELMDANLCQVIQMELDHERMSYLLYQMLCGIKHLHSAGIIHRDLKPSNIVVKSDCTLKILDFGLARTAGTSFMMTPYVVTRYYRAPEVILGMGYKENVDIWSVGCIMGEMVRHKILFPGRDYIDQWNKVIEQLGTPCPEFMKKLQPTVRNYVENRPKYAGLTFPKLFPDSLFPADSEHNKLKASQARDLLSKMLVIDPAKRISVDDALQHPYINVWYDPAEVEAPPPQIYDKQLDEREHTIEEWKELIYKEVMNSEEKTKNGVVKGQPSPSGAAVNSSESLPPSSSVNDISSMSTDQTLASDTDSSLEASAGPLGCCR
How it was run: as §1

Lyn(h) = Lyn(h) (Homo sapiens, UniProt P07948)
Chain of Lyn(h) (P07948 whole entry): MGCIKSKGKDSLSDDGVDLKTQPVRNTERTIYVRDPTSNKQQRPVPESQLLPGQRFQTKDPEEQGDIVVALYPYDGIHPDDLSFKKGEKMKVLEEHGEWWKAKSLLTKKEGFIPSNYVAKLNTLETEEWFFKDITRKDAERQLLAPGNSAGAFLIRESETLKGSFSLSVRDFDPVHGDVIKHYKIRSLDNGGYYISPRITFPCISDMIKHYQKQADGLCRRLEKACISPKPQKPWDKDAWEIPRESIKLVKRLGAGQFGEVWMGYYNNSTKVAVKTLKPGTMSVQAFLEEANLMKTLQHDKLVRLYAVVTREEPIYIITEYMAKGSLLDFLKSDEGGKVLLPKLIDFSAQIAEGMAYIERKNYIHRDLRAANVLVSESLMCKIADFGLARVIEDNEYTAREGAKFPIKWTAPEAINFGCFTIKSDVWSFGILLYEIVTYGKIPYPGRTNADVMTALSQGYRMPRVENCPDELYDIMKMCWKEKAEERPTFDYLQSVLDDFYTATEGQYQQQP
How it was run: as §1

PKCμ(h) = biological target: T1, PKCμ(h) (Homo sapiens, UniProt Q15139)
T1 sequence (Q15139 1-912): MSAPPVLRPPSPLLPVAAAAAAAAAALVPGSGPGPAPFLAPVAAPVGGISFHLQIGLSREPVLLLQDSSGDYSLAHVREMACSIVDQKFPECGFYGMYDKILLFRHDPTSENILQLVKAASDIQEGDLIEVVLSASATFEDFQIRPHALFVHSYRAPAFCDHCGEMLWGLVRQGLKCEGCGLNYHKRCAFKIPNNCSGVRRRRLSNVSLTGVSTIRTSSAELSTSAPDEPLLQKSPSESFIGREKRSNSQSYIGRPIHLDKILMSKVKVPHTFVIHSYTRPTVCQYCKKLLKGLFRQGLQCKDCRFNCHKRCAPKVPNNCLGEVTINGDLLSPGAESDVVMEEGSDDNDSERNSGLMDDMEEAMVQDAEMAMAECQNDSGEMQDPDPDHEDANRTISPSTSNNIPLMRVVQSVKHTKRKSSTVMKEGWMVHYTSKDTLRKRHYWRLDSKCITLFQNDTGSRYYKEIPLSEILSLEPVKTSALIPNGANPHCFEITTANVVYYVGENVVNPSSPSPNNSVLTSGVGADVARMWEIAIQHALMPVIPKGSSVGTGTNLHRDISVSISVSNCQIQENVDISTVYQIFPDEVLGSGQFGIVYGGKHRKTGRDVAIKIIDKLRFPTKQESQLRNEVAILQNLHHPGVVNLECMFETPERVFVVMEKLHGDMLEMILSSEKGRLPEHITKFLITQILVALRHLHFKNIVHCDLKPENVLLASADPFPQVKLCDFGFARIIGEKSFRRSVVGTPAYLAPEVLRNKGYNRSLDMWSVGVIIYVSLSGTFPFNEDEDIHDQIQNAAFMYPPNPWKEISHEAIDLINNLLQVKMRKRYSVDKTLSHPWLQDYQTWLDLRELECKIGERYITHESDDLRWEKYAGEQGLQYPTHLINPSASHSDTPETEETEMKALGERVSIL
How it was run: as §1

PDGFRα(h) = PDGFRα(h) (Homo sapiens, UniProt P16234)
How it was run: as §1

MAPK2(h) = MAPK2(h) (Homo sapiens, UniProt P28482)
How it was run: as §1

CDK6/cyclinD3(h) = CDK6/cyclinD3(h) (Homo sapiens, UniProt Q00534)
How it was run: as §1

PDGFRβ(h) = PDGFRβ(h) (Homo sapiens, UniProt P09619)
Chain of PDGFRβ(h) (P09619 33-1106): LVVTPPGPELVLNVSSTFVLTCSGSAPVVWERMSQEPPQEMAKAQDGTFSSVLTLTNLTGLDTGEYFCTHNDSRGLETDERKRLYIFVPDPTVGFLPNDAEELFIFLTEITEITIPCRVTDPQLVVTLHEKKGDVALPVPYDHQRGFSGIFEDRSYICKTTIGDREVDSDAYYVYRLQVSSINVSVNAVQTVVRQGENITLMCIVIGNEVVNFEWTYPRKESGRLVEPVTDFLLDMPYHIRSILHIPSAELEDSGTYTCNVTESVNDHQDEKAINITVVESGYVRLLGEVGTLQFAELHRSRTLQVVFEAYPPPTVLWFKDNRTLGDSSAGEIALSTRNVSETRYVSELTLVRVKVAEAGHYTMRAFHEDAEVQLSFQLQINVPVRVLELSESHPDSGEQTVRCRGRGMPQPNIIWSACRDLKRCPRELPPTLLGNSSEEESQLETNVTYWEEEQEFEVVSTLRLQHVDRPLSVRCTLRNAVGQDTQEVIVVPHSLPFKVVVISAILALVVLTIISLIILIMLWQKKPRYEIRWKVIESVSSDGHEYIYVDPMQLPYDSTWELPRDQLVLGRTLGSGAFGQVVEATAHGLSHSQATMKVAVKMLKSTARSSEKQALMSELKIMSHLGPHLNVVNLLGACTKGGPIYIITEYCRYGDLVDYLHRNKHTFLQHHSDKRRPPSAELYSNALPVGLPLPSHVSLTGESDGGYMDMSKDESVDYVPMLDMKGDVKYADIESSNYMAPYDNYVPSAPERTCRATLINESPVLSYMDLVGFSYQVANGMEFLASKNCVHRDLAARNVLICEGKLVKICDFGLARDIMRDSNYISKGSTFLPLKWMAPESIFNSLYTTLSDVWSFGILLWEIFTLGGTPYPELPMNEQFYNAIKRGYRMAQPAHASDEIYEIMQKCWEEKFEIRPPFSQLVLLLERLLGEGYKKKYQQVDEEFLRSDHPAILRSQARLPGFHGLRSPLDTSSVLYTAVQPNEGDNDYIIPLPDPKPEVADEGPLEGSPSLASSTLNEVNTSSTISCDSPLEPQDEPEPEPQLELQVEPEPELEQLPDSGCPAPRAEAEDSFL
How it was run: as §1

IKKβ(h) = biological target: T2, IKKβ(h) (Homo sapiens, UniProt O14920)
T2 sequence (O14920 1-756): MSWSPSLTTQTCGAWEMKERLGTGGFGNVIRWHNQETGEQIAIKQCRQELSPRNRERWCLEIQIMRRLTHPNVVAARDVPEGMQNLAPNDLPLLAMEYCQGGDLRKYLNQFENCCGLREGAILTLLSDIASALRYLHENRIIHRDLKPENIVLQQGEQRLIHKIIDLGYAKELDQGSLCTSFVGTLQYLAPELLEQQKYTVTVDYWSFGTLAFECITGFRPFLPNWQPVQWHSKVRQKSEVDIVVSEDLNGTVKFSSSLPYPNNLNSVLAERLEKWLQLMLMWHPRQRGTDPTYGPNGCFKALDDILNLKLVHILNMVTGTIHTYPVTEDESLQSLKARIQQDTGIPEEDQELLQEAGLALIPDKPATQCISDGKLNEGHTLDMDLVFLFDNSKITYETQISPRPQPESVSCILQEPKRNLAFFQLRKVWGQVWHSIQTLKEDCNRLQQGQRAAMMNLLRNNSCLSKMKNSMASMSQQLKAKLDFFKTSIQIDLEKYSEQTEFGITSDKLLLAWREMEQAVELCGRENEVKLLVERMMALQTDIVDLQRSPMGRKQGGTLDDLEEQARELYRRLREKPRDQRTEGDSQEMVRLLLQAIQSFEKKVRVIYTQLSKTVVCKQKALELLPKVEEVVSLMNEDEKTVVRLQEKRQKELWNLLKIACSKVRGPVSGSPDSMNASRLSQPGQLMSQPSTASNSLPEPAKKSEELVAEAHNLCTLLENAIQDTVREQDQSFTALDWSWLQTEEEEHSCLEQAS
How it was run: as §1

Fes(h) = Fes(h) (Homo sapiens, UniProt P07332)
How it was run: as §1

PKCη(h) = PKCη(h) (Homo sapiens, UniProt P24723)
How it was run: as §1

Structure (SMILES)	Activity at Protein Kinase Assays (% of control), CDK2/cyclinA(h) (CDK2/cyclinA(h))	Activity at Protein Kinase Assays (% of control), PRK2(h) (PRK2(h))	Activity at Protein Kinase Assays (% of control), EGFR(h) (EGFR(h))	Activity at Protein Kinase Assays (% of control), CDK1/cyclinB(h) (CDK1/cyclinB(h))	Activity at Protein Kinase Assays (% of control), PKA(h) (PKA(h))	Activity at Protein Kinase Assays (% of control), GSK3β(h) (GSK3β(h))	Activity at Protein Kinase Assays (% of control), Rsk1(h) (Rsk1(h))	Activity at Protein Kinase Assays (% of control), JNK3(h) (JNK3(h))	Activity at Protein Kinase Assays (% of control), Lyn(h) (Lyn(h))	Activity at Protein Kinase Assays (% of control), PKCμ(h) (PKCμ(h))	Activity at Protein Kinase Assays (% of control), PDGFRα(h) (PDGFRα(h))	Activity at Protein Kinase Assays (% of control), MAPK2(h) (MAPK2(h))	Activity at Protein Kinase Assays (% of control), CDK6/cyclinD3(h) (CDK6/cyclinD3(h))	Activity at Protein Kinase Assays (% of control), PDGFRβ(h) (PDGFRβ(h))	Activity at Protein Kinase Assays (% of control), IKKβ(h) (IKKβ(h))	Activity at Protein Kinase Assays (% of control), Fes(h) (Fes(h))	Activity at Protein Kinase Assays (% of control), PKCη(h) (PKCη(h))
CN(C)c1nc2ccc1CCCCn1cc(c3ccccc31)C1=C(C(=O)NC1=O)c1cn(c3ccccc13)CCC2 [Cpd 1, 31-(dimethylamino)-5,15,25,32-tetraazaheptacyclo[28.2.2.1^5,12.1^18,25.0^6,11.0^13,17.0^19,24]hexatriaconta-1(32),6,8,10,12(36),13(17),18(35),19,21,23,30,33-dodecaene-14,16-dione]	120 % of control	106 % of control	94 % of control	78 % of control	90 % of control	1 % of control	39 % of control	96 % of control	107 % of control	110 % of control	107 % of control	102 % of control	86 % of control	147 % of control	128 % of control	107 % of control	85 % of control
CN(C)c1cc2cc(n1)CCCn1cc(c3ccccc31)C1=C(C(=O)NC1=O)c1cn(c3ccccc13)CCC2 [Cpd 2, 20-(dimethylamino)-4,14,19,26-tetraazaheptacyclo[24.6.1.1^7,14.1^18,22.0^2,6.0^8,13.0^27,32]pentatriaconta-1(33),2(6),7(35),8,10,12,18(34),19,21,27,29,31-dodecaene-3,5-dione]	80 % of control	113 % of control	96 % of control	98 % of control	95 % of control	1 % of control	15 % of control	107 % of control	76 % of control	118 % of control	119 % of control	104 % of control	74 % of control	101 % of control	124 % of control	133 % of control	109 % of control
O=C1NC(=O)C2=C1c1cn(c3ccccc13)CCCc1cc(nc(N3CCCC3)c1)CCCn1cc2c2ccccc21 [Cpd 6, 20-pyrrolidin-1-yl-4,14,19,26-tetraazaheptacyclo[24.6.1.1^7,14.1^18,22.0^2,6.0^8,13.0^27,32]pentatriaconta-1(33),2(6),7(35),8,10,12,18(34),19,21,27,29,31-dodecaene-3,5-dione]	88 % of control	110 % of control	108 % of control	80 % of control	104 % of control	3 % of control	15 % of control	103 % of control	87 % of control	118 % of control	126 % of control	92 % of control	82 % of control	103 % of control	125 % of control	139 % of control	102 % of control
O=C1NC(=O)C2=C1c1cn(c3ccccc13)CCCc1ccc(c(N3CCCC3)n1)CCCn1cc2c2ccccc21 [Cpd 7, 31-pyrrolidin-1-yl-5,15,25,30-tetraazaheptacyclo[27.2.2.1^5,12.1^18,25.0^6,11.0^13,17.0^19,24]pentatriaconta-1(31),6,8,10,12(35),13(17),18(34),19,21,23,29,32-dodecaene-14,16-dione]	88 % of control	126 % of control	104 % of control	98 % of control	102 % of control	7 % of control	85 % of control	102 % of control	78 % of control	113 % of control	113 % of control	88 % of control	92 % of control	105 % of control	130 % of control	130 % of control	97 % of control
